The subject of series [1] is Peripheral blood mononuclear cells (PBMC): lymphocytes and monocytes. Description: 5 colour flow cytometry of PBMC after exposure to calixarenes. The settings on record: 24 hours, 10^-4M, 2.5×10^-5M, 3.13×10^-6M. It counts as cell-based, human. The protocol: A 5 colour flow cytometry based assay was done to complement the MTS assay to provide a better snapshot of the toxicology profile of the calixarenes. Four concentrations from the MTS assay graph results (Control, 1, 1/4 dilution and 1/32 dilution) were chosen to illustrate the differences in cell profiles after the exposure of the calixarenes. 500,000 cells in 0.5 ml was cultured with 50 μL of calixarenes in polypropylene tubes (BD Falcon, Sarstedt) for 24 hours at 37° C., 5% CO2, 10° angle with the lid loosely closed. Polypropylene tube cultures were chosen as it provides better yield of monocytes.
After the 24 hour incubation, a cell count was performed to ensure there were at least 200,000 cells in each sample. The cells were centrifuged at 400G for 8 minutes and washed twice with flow buffer (10% bovine serum albumin in 1×PBS) by centrifugation at 400G for 8 minutes. An antibody cocktail of 10 μL annexin V FITC (marker used to detect apoptosis of cells), 5 μL CD3 APC (marker for detection of T-cells), 2.5 μL CD14 PECy7 (marker for detection of monocytes), 5 μL HLA-DR PE (marker for detection of cell activation) and 5 μL 7-AAD (marker to detect cell death) in each tube was prepared. The cells were resuspended in 200 μL of 1× Annexin V binding buffer. 100 μL of the resuspended cells were added to flow tubes containing the antibody cocktail and was incubated at room temperature in the dark for at least 15 minutes. The samples were then read using BD FACS Canto flow cytometer within an hour of antibody incubation. The experiment was replicated in triplicates using PBMC from different individuals.
Lymphocyte and monocyte population characteristics are summarised in the graph in FIG. 8. Lymphocyte and monocyte population numbers are based on total population while apoptotic cells, dead cells, live cells etc are based on their respective populations. Lymphocytes normally make up 60% of total population. […] However, this is most likely due to total lysis of cells, which cannot be detected by dead cell marker. Monocytes normally make up 10-15% of total population. The culturing process seems to cause most monocytes to be apoptotic due to their fragile nature.
Phosphonated calix[5]arene was tested with flow cytometry at the following concentrations; 10^-4M, 2.5×10^-5M (1 in 4 dilution) and 3.13×10^-6M (1 in 32 dilution). Lymphocyte and monocyte population characteristics are summarised in the graph in FIG. 9. Lymphocyte and monocyte population numbers are based on total population while apoptotic cells, dead cells, live cells etc are based on their respective populations. Lymphocytes normally make up 60% of total population. […] However, this is most likely due to total lysis of cells, which cannot be detected by dead cell marker. Monocytes normally make up 10-15% of total population. Culturing process seems to cause most monocytes to be apoptotic due to their fragile nature and this finding is in line with our literature review. There is a decline in monocyte numbers with increasing concentration of this calixarene.

Series [2] relates to Peripheral blood mononuclear cells (PBMC). The series is described as follows: Cell viability assay (MTS assay) on PBMC. It counts as cell-based, human. The conditions noted are these: two fold dilutions starting from 10^−4M, FIG. 8 / FIG. 9. The protocol: Cytotoxicity of these calixarenes were conducted using Peripheral Blood Mononucleus Cell line (PBMC) which were extracted from subjects blood (50 ml sample). Each calixarene compound was tested on three subjects out of a pool of 5 people (all caucasian females of 20-25 years of age). The extracted cell content represent 1% of the blood sample and comprised of Lymphocyte (60%) and monocytes (10-15%). The experiment was conducted by incubating the cells in a 96 well plate in triplicate with the calixarenes for 24 hours at different concentrations at an estimated concentration of 100000 cells per well.
A pipeline was designed to obtain reliable preliminary toxicology data in vitro. The pipeline was designed to allow testing of any particles of interest within a short time frame. […]
PBMC were harvested using the Ficoll method. […] The cells are then suspended in freezing media (10% DMSO in HIFCS) at 10 million cells per ml and stored as 1 ml aliquots in liquid nitrogen until it is ready for use. […]
CellTitre 96© Aqueous One Solution Cell Proliferation Assay was used to measure cell viability. […] The PHA was added to trigger activation of lymphocytes which was hypothesised that it may alter the reading of the MTS assay. […] The plate is further incubated for another 4 hours and is read through a spectrophotometer at 490 nm. […]

The conditions of series [3]: DMSO, room temperature, FIG. 5.

In the case of `O=P(O)(O)c1cc2c(O)c(c1)Cc1cc(P(=O)(O)O)cc(c1O)Cc1cc(P(=O)(O)O)cc(c1O)Cc1cc(P(=O)(O)O)cc(c1O)Cc1cc(P(=O)(O)O)cc(c1O)C2` [phosphonated calix[5]arene, 5,11,17,23,29-Penta(dihydroxyphosphoryl)-31,32,33,34,35-pentahydroxycalix[5] arene], in series [1], the “live monocytes population numbers with increasing concentration” value is given as “seems to increase”, the “monocyte numbers with increasing concentration” value is “decline” and the “proportion of dead lymphocytes with increasing concentration” value is reported as “seems to decline”. Further, the “toxicity judged from cell viability (absorbance)” value in series [2] is listed as “less toxicity with this calixarene than with sulphonated calixarenes”.
Regarding “5,11,17,23-Tetra(dihydroxyphosphoryl)-25,26,27,28-tetrahydroxycalix[4]arene [phosphonated calix[4]arene]”, in series [1], the “monocyte numbers with increasing concentration” value is listed as “slight decline” and the “proportion of dead lymphocytes with increasing concentration” value is reported as “seems to decline”. In series [2], the “toxicity judged from cell viability (absorbance)” value is “no significant sign of toxicity”. In series [3], the “time over which nano-rafts dissociate into solvated monomeric units” value was found to be 36 h.

Source of the values: US8252954B2, “Processes for the preparation of calixarene derivatives” (The Curators of The University of Missouri, priority 2007, dated 2012).
